Data from PMC11513924, “Addressing the Intracellular Vestibule of the Plasmodial Lactate Transporter PfFNT by p-Substituted Inhibitors Amplifies In Vitro Activity” (Journal of Medicinal Chemistry, 2024).
Read-outs that look alike come from different tables or passages of the source.

Experiments:
P. falciparum 3D7 = P. falciparum 3D7 SCID mouse model, in vivo efficacy; parameters: species or system Plasmodium falciparum (SCID mice); conditions: oral 150 mg kg^–1 day^–1, four consecutive days, one animal
Protocol: The animal experiments against P. berghei were carried out at the Swiss Tropical and Public Health Institute adhering to local and national regulations of laboratory animal welfare in Switzerland (awarded permission no. BL530). Protocols are regularly reviewed and revised following approval by the local authority (Amt für Lebensmittelsicherheit and Veterinärwesen Basel-Land). Female mice infected with GFP-expressing P. berghei (ANKA strain, donated by A. P. Waters and C. J. Janse, Leiden University, The Netherlands) were analyzed for in vivo efficacy of 7e and 8a as described previously.[18],[19] Parasitemia was determined using flow cytometry with a detection limit of 1 parasite in 1000 erythrocytes. Compound activity was calculated as the difference between the mean parasitemia for the control and treated groups (n = 3, each) expressed relative to the control group. 7e and 8a were suspended in 70/30 Tween 80/ethanol, diluted 10-fold with water and administered orally 4, 24, 48, and 72 h after infection. 7e was analyzed at 30, 10, and 3 mg kg^–1, 8a at 50, and 10 mg kg^–1. In vivo efficacy against P. falciparum was conducted at The Art of Discovery, TAD, Bizkaia, Spain, according to the previously described standard assay.[16],[17]

[1] = test system: Plasmodium falciparum 3D7 parasites; experiment: P. falciparum 3D7 culture growth assay in erythrocytes (in vitro activity); assay type: cell-based; conditions: Plasmodium falciparum, 3D7, Erythrocyte; for activity at 0.05 µM / activity at 0.1 µM / activity at 0.2 µM / EC50: 48 h; for activity at 0.05 µM: read-out: % Growth at 50 nM (in vitro, 3D7); for activity at 0.1 µM: read-out: % Growth at 100 nM (in vitro, 3D7); for activity at 0.2 µM: read-out: % Growth at 200 nM (in vitro, 3D7); for EC50: read-out: EC50 (in vitro, 3D7)
In short: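 Parasitemia of P. falciparum 3D7 in erythrocyte culture was measured by flow cytometry and growth expressed as % of untreated control.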

[2] = Blood levels of compound in the SCID mouse model; assay type: in vivo

Question: With `CCCNc1ccc(C(=O)/C=C(\O)C(F)(F)C(F)(F)F)cn1` [7e, 4,4,5,5,5-Pentafluoro-3-hydroxy-1-(6-(propylamino)pyridin-3-yl)pent-2-en-1-one] as the compound, how does the “effect on parasite load” value (P. falciparum 3D7) read?
Answer: decreased the parasite load below the starting parasitemia

Question: And the activity at 0.05 µM ([1]; 50 nM compound, % of untreated control)?
Answer: 7%

Question: What about the activity at 0.1 µM ([1]; 100 nM compound, % of untreated control) of the same compound?
Answer: 4%

Question: And the activity at 0.2 µM ([1]; 200 nM compound, % of untreated control)?
Answer: 2%

Question: And the inhibition at 0.05 µM ([1]; 50 nM compound, 100 minus % growth, read-out: inhibitory activity at 50 nM (in vitro, 3D7))?
Answer: 93%

Question: What about the EC50 ([1]; cultures in erythrocytes) of the same compound?
Answer: 14.8 nM

Question: What about the “blood concentration (peak)” value ([2]; oral 4 × 50 mg kg^–1) of the same compound?
Answer: ~2 μg mL^–1

Question: And the half-life ([2]; whole blood, oral 4 × 50 mg kg^–1, read-out: half-life from modeled blood profile)?
Answer: 2 to 4 h

Question: With `CC(=O)Nc1ccc(C(=O)/C=C(\O)C(F)(F)C(F)(F)F)cn1` [8a, N-[5-(4,4,5,5,5-Pentafluoro-3-hydroxypent-2-enoyl)pyridin-2-yl]acetamide] as the compound, how does the activity at 0.05 µM [1] read?
Answer: 50%

Question: What about the activity at 0.1 µM [1] of the same compound?
Answer: 23%

Question: What about the activity at 0.2 µM [1] of the same compound?
Answer: 8%

Question: And the EC50 [1]?
Answer: 49.8 nM
